Reference: patent US20060246099A1 (L'OREAL, priority 2005, published 2006)

How the values were obtained:
[1] = tested on: type L calcium channels, verapamil site; assay: Binding to type L calcium channels, [3H](-)-D888 displacement; set-up: species or system rat; settings: similar test, concentration of 50 μM
Procedure: The studies are performed using rat cerebral cortex homogenates (isolated membranes containing at their surface type L calcium channels) according to the method described by Reynolds I. J. et al., 1986, J. Pharmacol. Exp. Ther., 237, p. 731.
The experimental conditions are as follows:
D888, which is [^3H] (−)-demethoxyverapamil, serves as a radiolabelled specific ligand, and D600, which is (±)-methoxyverapamil hydrochloride, serves as a reference molecule.
The specific binding of a ligand (labelled D888) to the receptors (type L calcium channels, verapamil site) is defined as being the difference between the total binding and the non-specific binding determined in the presence of an excess of cold (non-radioactive) ligand. The results are expressed as a percentage of inhibition of the specific binding of the control in the presence of the test compound.

[2] = tested on: human striated muscle cells innervated with explants of rat embryonic rachidian ganglia and spinal cord; assay: Nerve-muscle coculture test (muscle fibre contractions); type: cell-based; settings: 60 seconds incubation
Procedure: The compounds of Examples 1 and 2 were tested on a model of nerve-muscle coculture, which makes it possible to recreate a motor arc by innervating human striated muscle cells with explants of rat embryonic rachidian ganglia and spinal cord.
Human muscle cells, obtained from samples of striated muscle from healthy donors, are inoculated into wells of cross section 1.8 cm^2 (24-well culture dishes). After culturing for ten days, these cells form a monolayer and fuse. At this stage, explants of embryonic spinal cord from a 13-day-old rat, containing the rachidian ganglia, are placed on the culture.
The growth of the neurites is visible beyond the spinal cord explant after one day of culture. The first contractions of the muscle fibres are observed after five to six days of coculture, and after three weeks all the muscle fibres in the region of the explants contract.
The cocultures are used after 21 days, when the muscle fibres are striated and contain mature differentiated neuromuscular junctions.
A muscle fibre showing regular contractions (at least 60 contractions per minute) is then selected from three different culture wells and the number of contractions is counted over 30 seconds. […] At the end of incubation, the number of contractions is again counted over 30 seconds. […]

[3] = tested on: human striated muscle cells innervated with explants of rat embryonic rachidian ganglia and spinal cord; settings: validation of the model; cited from earlier work
[4] = in vivo; cited from earlier work

Row | Molecule | inhibition of the specific binding of the control to the calcium channels [1] [%] | % inhibition of contractions ([2]; 10 μM) [%] | % inhibition of contractions ([2]; 100 μM) [%] | inhibition of muscle fibre contractions [3] | anti-wrinkle activity [4]
1 | 1-(2-phenylethyl)-4-(3-phenylpropyl)-piperazine [Compound 2] | 50 | 50 | 100 |  | 
2 | CN1C(=O)CN=C(c2ccccc2)c2cc(Cl)ccc21 [diazepam] |  |  |  | inhibited muscle fibre contractions | anti-wrinkle activity has been demonstrated in vivo
